Assay results published in US20150105252A1, “SUBSTITUTED PYRAZOLES AS HERBICIDES” (E I DU PONT DE NEMOURS AND COMPANY, priority 2013, published 2015).

Tests used:
barnyardgrass [1] = experiment: Test A preemergence; type: in vivo, Echinochloa crus-galli; conditions: preemergence; for Barnyardgrass plant response rating (0 to 100 scale, 0 is no effect, 100 is complete control): visual injury approx. 10 days after treatment
How it was run: (§1)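 Both timings tested concurrently in loam/sand soil: preemergence by directed soil spray, postemergence on plants of 2–10 cm at the one- to two-leaf stage. Greenhouse holding period was approximately 10 days before visual injury assessment (0–100, 0 = no effect).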

kochia [2] = experiment: Test A preemergence; type: in vivo, Kochia scoparia; conditions: for Kochia plant response rating (0 to 100 scale): visual injury approx. 10 days after treatment
Description: (§2) Seeds of plant species selected from barnyardgrass (Echinochloa crus-galli), kochia (Kochia scoparia), common ragweed (Ambrosia elation), Italian ryegrass (Lolium multiflorum), crabgrass, large (large crabgrass, Digitaria sanguinalis), foxtail, giant (giant foxtail, Setaria faberii), morningglory (Ipomoea spp.), pigweed (redroot pigweed, Amaranthus retroflexus), velvetleaf (Abutilon theophrasti), wheat (Triticum aestivum), and corn (Zea mays) were planted into a blend of loam soil and sand and treated preemergence with a directed soil spray using test chemicals formulated in a non-phytotoxic solvent mixture which included a surfactant.
(§3) At the same time, plants selected from these crop and weed species and also blackgrass (Alopecurus myosuroides), and galium (catchweed bedstraw, Galium aparine) were planted in pots containing the same blend of loam soil and sand and treated with postemergence applications of test chemicals formulated in the same manner. Plants ranged in height from 2 to 10 cm and were in the one- to two-leaf stage for the postemergence treatment. Treated plants and untreated controls were maintained in a greenhouse for approximately 10 days, after which time all treated plants were compared to untreated controls and visually evaluated for injury. Plant response ratings, summarized in Table A, are based on a 0 to 100 scale where 0 is no effect and 100 is complete control. A dash (-) response means no test result.

common ragweed [3] = experiment: Test A preemergence; type: in vivo, Ambrosia elation; conditions: for Common Ragweed plant response rating (0 to 100 scale): visual injury approx. 10 days after treatment
Description: as §2, §3

Italian ryegrass [4] = experiment: Test A preemergence; type: in vivo, Lolium multiflorum; conditions: for Italian Ryegrass plant response rating (0 to 100 scale): visual injury approx. 10 days after treatment
Description: as §2, §3

foxtail, giant [5] = experiment: Test A preemergence; type: in vivo, Setaria faberii; conditions: preemergence; for Foxtail, Giant plant response rating (0 to 100 scale): visual injury approx. 10 days after treatment
How it was run: as §1

pigweed [6] = experiment: Test A preemergence; type: in vivo, Amaranthus retroflexus; conditions: preemergence; for Pigweed plant response rating (0 to 100 scale): visual injury approx. 10 days after treatment
How it was run: as §1

barnyardgrass [7] = experiment: Test A postemergence; type: in vivo, Echinochloa crus-galli
How it was run: as §1

kochia [8] = experiment: Test A postemergence; type: in vivo, Kochia scoparia
Description: as §2, §3

common ragweed [9] = experiment: Test A postemergence; type: in vivo, Ambrosia elation
Description: as §2, §3

Italian ryegrass [10] = experiment: Test A postemergence; type: in vivo, Lolium multiflorum
Description: as §2, §3

foxtail, giant [11] = experiment: Test A postemergence; type: in vivo, Setaria faberii
How it was run: as §1

pigweed [12] = experiment: Test A postemergence; type: in vivo, Amaranthus retroflexus
How it was run: as §1

wheat = experiment: Test A postemergence; type: in vivo, Triticum aestivum
How it was run: as §1

corn = experiment: Test A postemergence; type: in vivo, Zea mays
How it was run: as §1

blackgrass = experiment: Test A postemergence; type: in vivo, Alopecurus myosuroides
Description: as §2, §3

galium = experiment: Test A postemergence; type: in vivo, Galium aparine
Description: as §2, §3

rice = experiment: Test B flood; type: in vivo, Oryza sativa; conditions: 250 g ai/ha, visual rating on 0 to 100 scale (0 no effect, 100 complete control), 13 to 15 days
How it was run: (§4)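 Response scored visually, 0–100 relative to controls, 13–15 days after the compound was applied into paddy water; plants were at the 2-leaf stage in pots kept flooded to 3 cm.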

sedge, umbrella = experiment: Test B flood; type: in vivo, Cyperus difformis; conditions: 250 g ai/ha, visual rating on 0 to 100 scale (0 no effect, 100 complete control), 13 to 15 days
How it was run: as §4

ducksalad = experiment: Test B flood; type: in vivo, Heteranthera limosa; conditions: 250 g ai/ha, visual rating on 0 to 100 scale (0 no effect, 100 complete control), 13 to 15 days
How it was run: as §4

barnyardgrass [13] = experiment: Test B flood; type: in vivo, Echinochloa crus-galli; conditions: 250 g ai/ha, visual rating on 0 to 100 scale (0 no effect, 100 complete control), 13 to 15 days
How it was run: as §4

[14] = 500 g ai/ha, visual injury after approx. 10 days, 0 to 100 scale (0 no effect, 100 complete control)
[15] = Postemergence, 125 g ai/ha, 0 to 100 scale, 0 no effect, 100 complete control
[16] = Postemergence, 500 g ai/ha, 0 to 100 scale (0 no effect, 100 complete control)
[17] = postemergence, 125 g ai/ha, about 10 days, visual rating on 0 to 100 scale (0 no effect, 100 complete control)
[18] = 125 g ai/ha, visual injury, 0 to 100 scale, approx. 10 days

SMILES	Barnyardgrass plant response rating (0 to 100 scale, 0 is no effect, 100 is complete control) (barnyardgrass [1]; 125 g ai/ha)	Barnyardgrass plant response rating (barnyardgrass [1]; [14])	Kochia plant response rating (0 to 100 scale) (kochia [2]; 125 g ai/ha)	Common Ragweed plant response rating (common ragweed [3]; [14])	Italian Ryegrass plant response rating (Italian ryegrass [4]; [14])	Foxtail, Giant plant response rating (foxtail, giant [5]; [14])	Barnyardgrass plant response rating (barnyardgrass [7]; [16])	Kochia plant response rating (kochia [8]; [16])	Common Ragweed plant response rating (common ragweed [9]; [16])	Italian Ryegrass plant response rating (Italian ryegrass [10]; [16])	Foxtail, Giant plant response rating (foxtail, giant [11]; [16])	Pigweed plant response rating (pigweed [12]; [16])	Wheat plant response rating (wheat; [16])	Corn plant response rating (corn; [16])	Blackgrass plant response rating (blackgrass; [16])	Galium plant response rating (galium; [16])	Plant response rating, Rice (rice)	Plant response rating, Sedge, Umbrella (sedge, umbrella)	Plant response rating, Ducksalad (ducksalad)	Plant response rating, Barnyardgrass (barnyardgrass [13])	also measured
CCc1cc(C(=O)NCC(F)(F)F)nn1Cc1cc(C(F)(F)F)nn1C(C)C [Compound 213]	0	0	0	0	0	0	0	0	0	0	0	0	0	0	0	0	0	0	0	0	Common Ragweed plant response rating (0 to 100 scale) (common ragweed [3]; 125 g ai/ha): 0; Italian Ryegrass plant response rating (0 to 100 scale) (Italian ryegrass [4]; 125 g ai/ha): 0; Foxtail, Giant plant response rating (0 to 100 scale) (foxtail, giant [5]; 125 g ai/ha): 0; Pigweed plant response rating (0 to 100 scale) (pigweed [6]; 125 g ai/ha): 0; Barnyardgrass plant response rating (barnyardgrass [7]; [15]): 0; Kochia plant response rating (kochia [8]; [15]): 0; Common Ragweed plant response rating (common ragweed [9]; [15]): 0; Italian Ryegrass plant response rating (Italian ryegrass [10]; [15]): 0; Foxtail, Giant plant response rating (foxtail, giant [11]; [15]): 0; Pigweed plant response rating (pigweed [12]; [15]): 0; Wheat plant response rating (wheat; [15]): 0; Corn plant response rating (corn; [15]): 0; Blackgrass plant response rating (blackgrass; [15]): 0; Galium plant response rating (galium; [15]): 0
CCONC(=O)c1cc(CC)n(Cc2cc(C(F)(F)F)nn2C(C)C)n1 [Compound 208]	0	10	10	10	10	30	10	50	20	0	10	80	0	10	10	50	0	0	0	0	Common Ragweed plant response rating (0 to 100 scale) (common ragweed [3]; 125 g ai/ha): 0; Italian Ryegrass plant response rating (0 to 100 scale) (Italian ryegrass [4]; 125 g ai/ha): 0; Foxtail, Giant plant response rating (0 to 100 scale) (foxtail, giant [5]; 125 g ai/ha): 0; Pigweed plant response rating (0 to 100 scale) (pigweed [6]; 125 g ai/ha): 20; Barnyardgrass plant response rating (barnyardgrass [7]; [17]): 0; Kochia plant response rating (kochia [8]; [15]): 20; Common Ragweed plant response rating (common ragweed [9]; [17]): 0; Italian Ryegrass plant response rating (Italian ryegrass [10]; [15]): 0; Foxtail, Giant plant response rating (foxtail, giant [11]; [17]): 0; Pigweed plant response rating (pigweed [12]; [15]): 40; Wheat plant response rating (wheat; [15]): 0; Corn plant response rating (corn; [17]): 0; Blackgrass plant response rating (blackgrass; [17]): 0; Galium plant response rating (galium; [15]): 20
CCc1cc(C(=O)NC2CC2)nn1Cc1cc(C(F)(F)F)no1 [Compound 124]		100		40	20	100	70	90	30	30	90	100	0	40	60	80	20	20	30	10	Barnyardgrass plant response rating (barnyardgrass [1]; [18]): 0; Kochia plant response rating (kochia [2]; [18]): 20; Kochia plant response rating (kochia [2]; [14]): 90; Common Ragweed plant response rating (common ragweed [3]; [18]): 10; Italian Ryegrass plant response rating (Italian ryegrass [4]; [18]): 0; Foxtail, Giant plant response rating (foxtail, giant [5]; [18]): 20; Pigweed plant response rating (pigweed [6]; [18]): 20; Pigweed plant response rating (pigweed [6]; [14]): 100; Barnyardgrass plant response rating (barnyardgrass [7]; [17]): 0; Kochia plant response rating (kochia [8]; [17]): 50; Common Ragweed plant response rating (common ragweed [9]; [17]): 20; Italian Ryegrass plant response rating (Italian ryegrass [10]; [17]): 10; Foxtail, Giant plant response rating (foxtail, giant [11]; [17]): 0; Pigweed plant response rating (pigweed [12]; [17]): 30; Wheat plant response rating (wheat; [17]): 0; Corn plant response rating (corn; [17]): 10; Blackgrass plant response rating (blackgrass; [17]): 10; Galium plant response rating (galium; [17]): 10
